Measured values: patent US11109538B2, “Method for producing galanthamine by a plant and electrical stimulation device” (Industrial Technology Research Institute, priority 2017, dated 2021)

Tested on: Lycoris aurea
Assay: Galanthamine release of plants subjected to chemical inducer treatment (LC-MS of lyophilized medium)
Assay type: in vivo
Details: for Amounts of galanthamine released into the medium: MS medium with 25 μM chemical inducer, whole plants of Lycoris aurea
Description: MS mediums containing chemical inducers (chitin (CA), salicylic acid (SA) and methyl jasmonate (MJ)) (final concentration of the chemical inducer is 25 μM) were prepared. Since the chemical inducers could not be high-strength autoclaved, after the preparations of the chemical inducers at room temperature were completed, sterilization by filtration was performed on the chemical inducers in a laminar flow. In the blank group, the medium contained no agent.
Healthy plants of Lycoris aurea with leaves and root with a bulb diameter of 0.6-0.8 cm were selected and withered epidermis on the bulb thereof was removed. The plant mentioned above was placed in a test tube having MS medium containing a chemical inducer and cultured under an illumination of 3000-4000 Lux with illumination time 16 hours an dark time 8 hours at an ambient temperature of 25-27° C.
30 mL of medium was recovered on the Day 0, Day 3, Day 7, Day 14, Day 28 and Day 35 of the culturing. The recovered medium was lyophilized to form a powder. A liquid chromatography-mass spectrometry analysis was performed on the obtained powder to determine the content of galanthamine therein to investigate the effect of the chemical stimulation treatment mentioned above on the plant that produces galanthamine and releases it into the medium.

O=C(O)c1ccccc1O [Salicylic acid, salicylic acid]
Amounts of galanthamine released into the medium (Day 0 of culturing): 0 ppm
Amounts of galanthamine released into the medium (Day 3 of culturing): 0.0183 ppm
Amounts of galanthamine released into the medium (Day 7 of culturing): 0.0077 ppm
Amounts of galanthamine released into the medium (Day 14 of culturing): 0.0142 ppm
Amounts of galanthamine released into the medium (Day 28 of culturing): 0.36 ppm
Amounts of galanthamine released into the medium (Day 35 of culturing): 1.01 ppm

chitin
Amounts of galanthamine released into the medium (Day 0 of culturing): 0 ppm
Amounts of galanthamine released into the medium (Day 3 of culturing): 0.0015 ppm
Amounts of galanthamine released into the medium (Day 7 of culturing): 0.0001 ppm
Amounts of galanthamine released into the medium (Day 14 of culturing): 0.74 ppm

CC/C=C\CC1C(=O)CCC1CC(=O)OC (centres unmarked) [Methyl jasmonate, methyl jasmonate]
Amounts of galanthamine released into the medium (Day 0 of culturing): 0 ppm
Amounts of galanthamine released into the medium (Day 3 of culturing): 0.0153 ppm
Amounts of galanthamine released into the medium (Day 7 of culturing): 0.0312 ppm
Amounts of galanthamine released into the medium (Day 14 of culturing): 0.0066 ppm
Amounts of galanthamine released into the medium (Day 28 of culturing): 2.72 ppm
Amounts of galanthamine released into the medium (Day 35 of culturing): 0.9 ppm
Effect on production and release of galanthamine for the plant (comparison of chemical inducers) (Table 2 and FIG. 7, 25 μM chemical inducer, Lycoris aurea): best effect
